Measurements reported in the NIST ThermoML archive (doi:10.1016/j.jct.2015.01.004).
“And” between values parts separate entries of the source, which are not always exact repeats. Identical values can stand only once. ± gives the expanded uncertainty stated by the source.

Test: molar heat capacity at constant pressure; xn = mol fraction of the nth substance listed
Details: 100 kPa

[Si] [silicon] + [Li]
Details | molar heat capacity at constant pressure
298.15 K, Crystal of intercomponent compound 2, relaxation calorimetry + DSC, x2 = 0.804 | 22.75 ± 0.92 J/K/mol
298.32 K, Crystal of intercomponent compound 1, relaxation calorimetry, x2 = 0.81 | 21.66 ± 0.88 J/K/mol
298.33 K, Crystal of intercomponent compound 2, relaxation calorimeter, x2 = 0.804 | 22.58 ± 0.92 J/K/mol
300 K, Crystal of intercomponent compound 1, relaxation calorimetry + DSC, x2 = 0.81 | 22.58 ± 0.92 J/K/mol
300 K, Crystal of intercomponent compound 2, relaxation calorimetry + DSC, x2 = 0.804 | 22.79 ± 0.93 J/K/mol
302.31 K, Crystal of intercomponent compound 1, relaxation calorimetry, x2 = 0.81 | 21.75 ± 0.88 J/K/mol
302.34 K, Crystal of intercomponent compound 2, relaxation calorimeter, x2 = 0.804 | 22.69 ± 0.92 J/K/mol
304.67 K, Crystal of intercomponent compound 2, Small sample (50 mg) DSC, x2 = 0.804 | 23.11 ± 0.57 J/K/mol and 23.16 ± 0.57 J/K/mol
304.7 K, Crystal of intercomponent compound 1, Small sample (50 mg) DSC, x2 = 0.81 | 22.87 ± 0.56 J/K/mol and 22.84 ± 0.56 J/K/mol
304.7 K, Crystal of intercomponent compound 2, Small sample (50 mg) DSC, x2 = 0.804 | 23.05 ± 0.56 J/K/mol
304.87 K, Crystal of intercomponent compound 1, Small sample (50 mg) DSC, x2 = 0.81 | 22.81 ± 0.56 J/K/mol
304.88 K, Crystal of intercomponent compound 1, Small sample (50 mg) DSC, x2 = 0.81 | 22.77 ± 0.56 J/K/mol
314.59 K, Crystal of intercomponent compound 2, Small sample (50 mg) DSC, x2 = 0.804 | 23.41 ± 0.57 J/K/mol and 23.55 ± 0.58 J/K/mol
314.61 K, Crystal of intercomponent compound 1, Small sample (50 mg) DSC, x2 = 0.81 | 23.01 ± 0.56 J/K/mol and 23.1 ± 0.57 J/K/mol
314.61 K, Crystal of intercomponent compound 2, Small sample (50 mg) DSC, x2 = 0.804 | 23.42 ± 0.57 J/K/mol
314.8 K, Crystal of intercomponent compound 1, Small sample (50 mg) DSC, x2 = 0.81 | 22.99 ± 0.56 J/K/mol
314.81 K, Crystal of intercomponent compound 1, Small sample (50 mg) DSC, x2 = 0.81 | 22.91 ± 0.56 J/K/mol
320 K, Crystal of intercomponent compound 1, relaxation calorimetry + DSC, x2 = 0.81 | 23.07 ± 0.94 J/K/mol
320 K, Crystal of intercomponent compound 2, relaxation calorimetry + DSC, x2 = 0.804 | 23.22 ± 0.94 J/K/mol
324.51 K, Crystal of intercomponent compound 2, Small sample (50 mg) DSC, x2 = 0.804 | 23.8 ± 0.58 J/K/mol and 23.85 ± 0.58 J/K/mol
324.52 K, Crystal of intercomponent compound 1, Small sample (50 mg) DSC, x2 = 0.81 | 23.19 ± 0.57 J/K/mol and 23.22 ± 0.57 J/K/mol
324.52 K, Crystal of intercomponent compound 2, Small sample (50 mg) DSC, x2 = 0.804 | 23.8 ± 0.58 J/K/mol
324.71 K, Crystal of intercomponent compound 1, Small sample (50 mg) DSC, x2 = 0.81 | 23.19 ± 0.57 J/K/mol
324.72 K, Crystal of intercomponent compound 1, Small sample (50 mg) DSC, x2 = 0.81 | 23.11 ± 0.57 J/K/mol
334.42 K, Crystal of intercomponent compound 2, Small sample (50 mg) DSC, x2 = 0.804 | 24.09 ± 0.59 J/K/mol and 24.14 ± 0.59 J/K/mol
334.43 K, Crystal of intercomponent compound 2, Small sample (50 mg) DSC, x2 = 0.804 | 24.12 ± 0.59 J/K/mol
334.44 K, Crystal of intercomponent compound 1, Small sample (50 mg) DSC, x2 = 0.81 | 23.32 ± 0.57 J/K/mol and 23.34 ± 0.57 J/K/mol
334.63 K, Crystal of intercomponent compound 1, Small sample (50 mg) DSC, x2 = 0.81 | 23.4 ± 0.57 J/K/mol
334.64 K, Crystal of intercomponent compound 1, Small sample (50 mg) DSC, x2 = 0.81 | 23.38 ± 0.57 J/K/mol
340 K, Crystal of intercomponent compound 1, relaxation calorimetry + DSC, x2 = 0.81 | 23.51 ± 0.95 J/K/mol
340 K, Crystal of intercomponent compound 2, relaxation calorimetry + DSC, x2 = 0.804 | 23.65 ± 0.96 J/K/mol
344.33 K, Crystal of intercomponent compound 2, Small sample (50 mg) DSC, x2 = 0.804 | 24.3 ± 0.6 J/K/mol and 24.38 ± 0.6 J/K/mol
344.35 K, Crystal of intercomponent compound 1, Small sample (50 mg) DSC, x2 = 0.81 | 23.65 ± 0.58 J/K/mol and 23.63 ± 0.58 J/K/mol
344.35 K, Crystal of intercomponent compound 2, Small sample (50 mg) DSC, x2 = 0.804 | 24.37 ± 0.6 J/K/mol
344.54 K, Crystal of intercomponent compound 1, Small sample (50 mg) DSC, x2 = 0.81 | 23.6 ± 0.58 J/K/mol
344.55 K, Crystal of intercomponent compound 1, Small sample (50 mg) DSC, x2 = 0.81 | 23.53 ± 0.58 J/K/mol
354.24 K, Crystal of intercomponent compound 2, Small sample (50 mg) DSC, x2 = 0.804 | 24.56 ± 0.6 J/K/mol and 24.6 ± 0.6 J/K/mol
354.26 K, Crystal of intercomponent compound 1, Small sample (50 mg) DSC, x2 = 0.81 | 23.98 ± 0.59 J/K/mol and 23.97 ± 0.59 J/K/mol
354.26 K, Crystal of intercomponent compound 2, Small sample (50 mg) DSC, x2 = 0.804 | 24.57 ± 0.6 J/K/mol
354.45 K, Crystal of intercomponent compound 1, Small sample (50 mg) DSC, x2 = 0.81 | 23.8 ± 0.58 J/K/mol
354.46 K, Crystal of intercomponent compound 1, Small sample (50 mg) DSC, x2 = 0.81 | 23.72 ± 0.58 J/K/mol
360 K, Crystal of intercomponent compound 1, relaxation calorimetry + DSC, x2 = 0.81 | 23.91 ± 0.97 J/K/mol
360 K, Crystal of intercomponent compound 2, relaxation calorimetry + DSC, x2 = 0.804 | 24.08 ± 0.98 J/K/mol
364.16 K, Crystal of intercomponent compound 2, Small sample (50 mg) DSC, x2 = 0.804 | 24.81 ± 0.61 J/K/mol and 24.83 ± 0.61 J/K/mol
364.17 K, Crystal of intercomponent compound 1, Small sample (50 mg) DSC, x2 = 0.81 | 24.15 ± 0.59 J/K/mol and 24.13 ± 0.59 J/K/mol
364.17 K, Crystal of intercomponent compound 2, Small sample (50 mg) DSC, x2 = 0.804 | 24.69 ± 0.6 J/K/mol
364.36 K, Crystal of intercomponent compound 1, Small sample (50 mg) DSC, x2 = 0.81 | 24.02 ± 0.59 J/K/mol
364.37 K, Crystal of intercomponent compound 1, Small sample (50 mg) DSC, x2 = 0.81 | 23.91 ± 0.59 J/K/mol
374.07 K, Crystal of intercomponent compound 2, Small sample (50 mg) DSC, x2 = 0.804 | 24.83 ± 0.61 J/K/mol and 24.87 ± 0.61 J/K/mol and 24.94 ± 0.61 J/K/mol
374.08 K, Crystal of intercomponent compound 1, Small sample (50 mg) DSC, x2 = 0.81 | 24.33 ± 0.6 J/K/mol and 24.27 ± 0.59 J/K/mol
374.28 K, Crystal of intercomponent compound 1, Small sample (50 mg) DSC, x2 = 0.81 | 24.24 ± 0.59 J/K/mol and 24.13 ± 0.59 J/K/mol
380 K, Crystal of intercomponent compound 1, relaxation calorimetry + DSC, x2 = 0.81 | 24.29 ± 0.99 J/K/mol
380 K, Crystal of intercomponent compound 2, relaxation calorimetry + DSC, x2 = 0.804 | 24.51 ± 1 J/K/mol
383.99 K, Crystal of intercomponent compound 2, Small sample (50 mg) DSC, x2 = 0.804 | 25.05 ± 0.61 J/K/mol
384.19 K, Crystal of intercomponent compound 1, Small sample (50 mg) DSC, x2 = 0.81 | 24.35 ± 0.6 J/K/mol
384.2 K, Crystal of intercomponent compound 1, Small sample (50 mg) DSC, x2 = 0.81 | 24.46 ± 0.6 J/K/mol
393.9 K, Crystal of intercomponent compound 2, Small sample (50 mg) DSC, x2 = 0.804 | 25.16 ± 0.62 J/K/mol and 25.27 ± 0.62 J/K/mol
394.11 K, Crystal of intercomponent compound 1, Small sample (50 mg) DSC, x2 = 0.81 | 24.46 ± 0.6 J/K/mol
394.12 K, Crystal of intercomponent compound 1, Small sample (50 mg) DSC, x2 = 0.81 | 24.68 ± 0.6 J/K/mol
400 K, Crystal of intercomponent compound 1, relaxation calorimetry + DSC, x2 = 0.81 | 24.63 ± 1 J/K/mol
400 K, Crystal of intercomponent compound 2, relaxation calorimetry + DSC, x2 = 0.804 | 24.94 ± 1 J/K/mol
403.81 K, Crystal of intercomponent compound 2, Small sample (50 mg) DSC, x2 = 0.804 | 25.3 ± 0.62 J/K/mol and 25.35 ± 0.62 J/K/mol
404.02 K, Crystal of intercomponent compound 1, Small sample (50 mg) DSC, x2 = 0.81 | 24.57 ± 0.6 J/K/mol
404.03 K, Crystal of intercomponent compound 1, Small sample (50 mg) DSC, x2 = 0.81 | 25.01 ± 0.61 J/K/mol
413.73 K, Crystal of intercomponent compound 2, Small sample (50 mg) DSC, x2 = 0.804 | 25.46 ± 0.62 J/K/mol and 25.49 ± 0.62 J/K/mol
413.94 K, Crystal of intercomponent compound 1, Small sample (50 mg) DSC, x2 = 0.81 | 24.68 ± 0.6 J/K/mol and 25.12 ± 0.62 J/K/mol
420 K, Crystal of intercomponent compound 1, relaxation calorimetry + DSC, x2 = 0.81 | 24.96 ± 1 J/K/mol
420 K, Crystal of intercomponent compound 2, relaxation calorimetry + DSC, x2 = 0.804 | 25.37 ± 1 J/K/mol
423.64 K, Crystal of intercomponent compound 2, Small sample (50 mg) DSC, x2 = 0.804 | 25.57 ± 0.63 J/K/mol and 25.65 ± 0.63 J/K/mol
423.85 K, Crystal of intercomponent compound 1, Small sample (50 mg) DSC, x2 = 0.81 | 24.68 ± 0.6 J/K/mol
423.86 K, Crystal of intercomponent compound 1, Small sample (50 mg) DSC, x2 = 0.81 | 25.12 ± 0.62 J/K/mol
433.56 K, Crystal of intercomponent compound 2, Small sample (50 mg) DSC, x2 = 0.804 | 25.68 ± 0.63 J/K/mol and 25.75 ± 0.63 J/K/mol
433.76 K, Crystal of intercomponent compound 1, Small sample (50 mg) DSC, x2 = 0.81 | 25.01 ± 0.61 J/K/mol
433.77 K, Crystal of intercomponent compound 1, Small sample (50 mg) DSC, x2 = 0.81 | 25.23 ± 0.62 J/K/mol
440 K, Crystal of intercomponent compound 1, relaxation calorimetry + DSC, x2 = 0.81 | 25.28 ± 1 J/K/mol
440 K, Crystal of intercomponent compound 2, relaxation calorimetry + DSC, x2 = 0.804 | 25.8 ± 1.1 J/K/mol
443.48 K, Crystal of intercomponent compound 2, Small sample (50 mg) DSC, x2 = 0.804 | 25.83 ± 0.63 J/K/mol and 25.95 ± 0.64 J/K/mol
443.67 K, Crystal of intercomponent compound 1, Small sample (50 mg) DSC, x2 = 0.81 | 25.01 ± 0.61 J/K/mol
443.69 K, Crystal of intercomponent compound 1, Small sample (50 mg) DSC, x2 = 0.81 | 25.56 ± 0.63 J/K/mol
453.39 K, Crystal of intercomponent compound 2, Small sample (50 mg) DSC, x2 = 0.804 | 25.96 ± 0.64 J/K/mol and 26.21 ± 0.64 J/K/mol
453.59 K, Crystal of intercomponent compound 1, Small sample (50 mg) DSC, x2 = 0.81 | 25.01 ± 0.61 J/K/mol
